Data set [1] is described as follows: In vitro lung delivery fraction test with multi-stage cascade impactor (Andersen sampler, Jethaler). Format: physicochemical. The note with it: Example 11: Pralmorelin dihydrochloride 5.0%, carrier erythritol 93.5%, micronized lactose 1.5%, 28.3 L/min. As to the method:
Capsulated preparations (The Japanese Pharmacopeia No. 2 HPMC capsules: manufactured by Shionogi Qualicaps Co., Ltd.) which were filled with about 40 mg each of three dry powder inhalations were prepared and mounted on an inhaler device (Jethaler; Unisia Jecs Corp.) The Jethaler was then attached to the mouthpiece of a cascade impactor (Andersen sampler Model AN-200) and inspired at a flow rate of 28.3 L/min., thereby dispersing the micronized medication in the capsule and measuring the residual active ingredient in the capsule and in the inhaler device as well as the distribution of the active ingredient at each stage with liquid chromatography. It was confirmed that in the in vitro test with cascade impactor, the lung delivery fraction at stages 2–7 corresponding to the respiring fraction differed substantially depending on the different carrier particles.
(§1) Capsulated preparations (The Japanese Pharmacopeia No. 2HPMC capsules: manufactured by Shionogi Qualicaps Co., Ltd.), which were filled with about 40 mg each of three dry powder inhalations, were prepared and mounted on an inhaler device (Jethaler®; Unisia Jecs Corp.). The Jethaler® brand device was then attached to the mouthpiece of a cascade impactor (Andersen sampler; Model AN-200) and inspired at a flow rate of 28.3 L/min., thereby dispersing the dry powder inhalation in the capsule and measuring the residual active ingredient in the capsule and in the inhaler device as well as the distribution of the active ingredient at each stage with liquid chromatography.
(§2) A capsulated preparation (The Japanese Pharmacopeia No. 2HPMC capsules: manufactured by Shionogi Qualicaps Co., Ltd.) which was filled with about 40 mg of the prepared dry powder inhalations was prepared and mounted on an inhaler device (Jethaler; Unisia Jecs Corp.) The Jethaler was then attached to the mouthpiece of a cascade impactor (Andersen sampler; Model AN-200) and inspired at a flow rate of 28.3 L/min., thereby dispersing the dry powder inhalation in the capsule and measuring the residual active ingredient in the capsule and in the inhaler device as well as the distribution of the active ingredient at each stage with liquid chromatography.
as §1, with “A capsulated preparation (The” for “Capsulated preparations (The”, “which was” for “which were”, “mg” for “mg each”, “chromatography. […]” for “chromatography.”
as §2, with “2 HPMC” for “2HPMC”, “Ltd.)” for “Ltd.) which was”, “inhalation” for “inhalations”

The nature of data set [2]: Moisture absorption test (hygroscopic properties) of test carriers. It is filed as physicochemical. Set-up: key to % Moisture Absorption: x: Not possible to measure (because the samples deliquesced.). The note with it: 25° C. As for the experimental part:
For the objective of selecting a material suitable as the carrier for a dry powder inhalation, moisture absorption tests were performed on erythritol, xylitol, lactose, D-mannitol, Amalty, glucose, Stevia, Benecoat and aspartame. […] (Tables 1, 2, and 3)
In order to ascertain that trehalose is a material having properties suitable as a carrier for dry powder inhalations, it was compared to lactose, a well-known carrier for dry powder inhalation. A test was carried out for comparing hygroscopicity. The trehalose used was the product of Asahi Kasei Kogyo KK, and Lactose 325M from the DMV Company. […] (Table 4, 5)

Structures can show the parent of a compound that is named as a salt. Square brackets hold non-standard residues; d marks the D form. Peptide text beside a SMILES is read from it. d2Nal = N[C@H](Cc1ccc2ccccc2c1)C(=O)O

`C[C@H](NC(=O)[C@@H](Cc1ccc2ccccc2c1)NC(=O)[C@@H](C)N)C(=O)N[C@@H](Cc1c[nH]c2ccccc12)C(=O)N[C@H](Cc1ccccc1)C(=O)N[C@@H](CCCCN)C(N)=O` [Pralmorelin dihydrochloride, reference compound] (H-[dA][d2Nal]AW[dF]K-NH2): in data set [1], the “Residual and Distributed Fractions of Active Ingredient (%): Capsule” value is 3.6%; the “Residual and Distributed Fractions of Active Ingredient (%): Inhaler device” value stood at 11.5%; the “Residual and Distributed Fractions of Active Ingredient (%): Stage 0” value came out at 7.7%; the “Residual and Distributed Fractions of Active Ingredient (%): Stage 1” value worked out at 26.6%.
Regarding `OC[C@@H](O)[C@H](O)[C@@H](O)CO` [Xylitol], the “% Moisture Absorption” value in data set [2] (Table 1, Humidity 60%, 24 Hours) turned out to be 0.000%; in data set [2] (Table 1, Humidity 60%, 72 Hours), 0.000%; in data set [2] (Table 1, Humidity 60%, 168 Hours), 0.019%; in data set [2] (Table 1, Humidity 60%, 366 Hours), 0.021%; in data set [2] (Table 2, Humidity 75%, 24 Hours), 0.087%; in data set [2] (Table 2, Humidity 75%, 48 Hours), 0.104%. The “% Moisture Absorption” value in data set [2] (Table 2, Humidity 75%, 72 Hours) was 0.126%; in data set [2] (Table 2, Humidity 75%, 168 Hours), 0.124%; in data set [2] (Table 2, Humidity 75%, 336 Hours), 0.126%; in data set [2] (Table 3, Humidity 90%, 24 Hours) it was 3.796%; in data set [2] (Table 3, Humidity 90%, 48 Hours), 17.917%; in data set [2] (Table 3, Humidity 90%, 72 Hours) it was “x”. Further, in data set [2] (Table 3, Humidity 90%, 168 Hours), the “% Moisture Absorption” value is listed as “x”.

For the origin of these results see patent US7022311B1, “Powdery inhalational preparations and process for producing the same” (Kaken Pharmaceutical Co., Ltd., priority 1999, dated 2006).
